# pKd: −log10 of the molar value.
# What was measured:
# [1] = tested on: Calf thymus DNA; test: Binding affinity to calf thymus DNA; type: nucleic-acid assay, Bos taurus
# [2] = tested on: KB; test: Cytotoxicity against human KB cells after 48 hrs; type: functional, cell-based
# [3] = tested on: KB; test: Cytotoxicity against human KB cells after 48 hrs in presence of exogenous DNA; type: functional, cell-based
structure (smiles),measurement,setting,value
C/C=C(\C)C(=O)OC(C)CC1CCCN1C(=O)CCCCCCCCC (stereo not drawn) [CONIOIDINE A],pKd,[1],5.55
same,IC50,[2],0.67 µg/mL
same,IC50,[3],2.1 µg/mL

# Source: ChEMBL document CHEMBL1147360, “Conioidines A and B, novel DNA-interacting pyrrolidines from Chamaesaracha conioides” (J Nat Prod, 1993)
